Tests used:
[1] = Near-IR spectra of dye compounds; assay type: physicochemical
β-amyloid plaques = assay: Plaque specificity of dye compounds; assay type: binding
Enter CNS (BBB) = conditions: in vivo

Row | Near-IR spectra [1] | Enter CNS (BBB) (Enter CNS (BBB)) | Structure (SMILES) | Plaque specificity (β-amyloid plaques)
1 | Yes | Yes/No | CC1(C)C(/C=C/c2ccc(-c3ccc(-c4ccc(O)cc4)s3)s2)=[N+](CCCS(=O)(=O)[O-])c2ccccc21 [NIAD1] | Yes
2 | Yes | No | C[N+]1=C(/C=C/c2ccc(-c3ccc(-c4ccc(O)cc4)s3)s2)C(C)(C)c2ccccc21.[Cl-] [NIAD3] | Yes
3 | Yes | No | CN(C)c1ccc(-c2sc(-c3ccc(C=C(C#N)C#N)s3)c3ccccc23)cc1 [NIAD6] | Yes
4 | No | Yes | CN(C)c1ccc(-c2ccc(-c3ccc(C=C4C(=C(C#N)C#N)c5ccccc5C4=C(C#N)C#N)s3)s2)cc1 [NIAD7] | Yes

From patent US20090087376A1, “Heterocyclic Dye Compounds For In Vivo Imaging And Diagnosis Of Alzheimer's Disease” (The General Hospital Corporation, priority 2004, published 2009)
